The conditions of series [1]: for enhancement of solubility of compound (A) (in words): phosphoric acid buffer pH 6.0. As to the method: The dissolution-assisting agents used as a control are β-cyclodextrin, γ-cyclodextrin, polyvinyl pyrrolidone (hereinbelow abbreviated as PVP), polyoxyethylene monostearate (hereinbelow abbreviated as MYS-40), polyoxyethylene sorbitan monooleate (hereinbelow abbreviated as TO-80), and polyoxyethylene cured castor oil (hereinbelow abbreviated as HCO-40, HCO-60).
Solubility was determined by dissolving the respective dissolution-assisting agents into 0.2 mole of phosphoric acid buffer solution (Na2 HPO4 NaH2 PO4, pH 6.0), then adding excessive amount of compound (A) and shaking the mixed solution at room temperature (15° C.~20° C.) for 5 days, centrifuging the solution, filtering the supernatant by use of cotton stoppers, and subsequently measuring the concentration of compound (A) contained in the filtrate with a high-speed liquid chromatography.

Series [2] is described as follows: Stability test of compound (A) with α-cyclodextrin at varying pHs. It is filed as physicochemical. Here is the method:
Stability test of compound (A) was performed in the following formula at varying pHs: […]
Purified Water amount totaling 1000 ml
Note: The data are represented in terms of persistence rate (%).

For series [3] the following is noted: 25° C.; cited from earlier work.
For another series, the system named is 5-riboxygenase. As to conditions: cited from earlier work.
Series [4] relates to production of SRS-A or LTB4. The following applies: cited from earlier work.
The subject of series [5] is experimental allergic asthma. The following applies: IgG and IgE, Guinea pigs; cited from earlier work.
Series [6] has as its system experimental allergic asthma. As to conditions: IgE, rats; cited from earlier work.

Entries after “also recorded” stand apart in the source; their conditions may differ. Read-outs that look alike come from different tables or passages of the source.

Regarding `OC[C@H]1O[C@@H]2O[C@H]3[C@H](O)[C@@H](O)[C@@H](O[C@H]4[C@H](O)[C@@H](O)[C@@H](O[C@H]5[C@H](O)[C@@H](O)[C@@H](O[C@H]6[C@H](O)[C@@H](O)[C@@H](O[C@H]7[C@H](O)[C@@H](O)[C@@H](O[C@H]8[C@H](O)[C@@H](O)[C@@H](O[C@H]9[C@H](O)[C@@H](O)[C@@H](O[C@H]1[C@H](O)[C@H]2O)O[C@@H]9CO)O[C@@H]8CO)O[C@@H]7CO)O[C@@H]6CO)O[C@@H]5CO)O[C@@H]4CO)O[C@@H]3CO` [γ-cyclodextrin, reference compound], the “enhancement of solubility of compound (A) (in words)” value in series [1] was “do not show any intended effect; also recorded: can hardly enhance the solubility”.
Take dimethyl-β-cyclodextrin: the “solubility-enhancing effect relative to phosphoric acid buffer” value in series [1] (pH 6) stood at 1000 times.
Consider `CC1=C(C)C(=O)C(CCCCC#CCCCC#CCO)=C(C)C1=O` [Compound (A)], for which the persistence rate is recorded as 101.2% in series [2] (60° C.-3 days, pH 4.0, with α-cyclodextrin); 102.6% in series [2] (60° C.-3 days, pH 5.0, with α-cyclodextrin); 102.5% in series [2] (60° C.-3 days, pH 6.0, with α-cyclodextrin); 93.3% in series [2] (60° C.-3 days, pH 7.0, with α-cyclodextrin); 102.5% in series [2] (60° C.-5 days, pH 4.0, with α-cyclodextrin); 99.5% in series [2] (60° C.-5 days, pH 5.0, with α-cyclodextrin). Besides, the persistence rate is 102.8% in series [2] (60° C.-5 days, pH 6.0, with α-cyclodextrin); 87.6% in series [2] (60° C.-5 days, pH 7.0, with α-cyclodextrin); 99.6% in series [2] (Room temp.-5 days, pH 4.0, with α-cyclodextrin); 103.0% in series [2] (Room temp.-5 days, pH 5.0, with α-cyclodextrin); 99.4% in series [2] (Room temp.-5 days, pH 6.0, with α-cyclodextrin); 99.1% in series [2] (Room temp.-5 days, pH 7.0, with α-cyclodextrin). Further, the solubility to water result in series [3] is “less than 10 ng/ml”. For the same molecule, the “5-riboxygenase inhibition (in words)” value in the series on 5-riboxygenase is reported as “selective inhibitor for 5-riboxygenase”. Also, the “inhibition of production of SRS-A or LTB4 (in words)” value in series [4] is recorded as “inhibit the production of SRS-A or LTB4”. Also, the “effect on experimental allergic asthma (in words)” value in series [5] and in series [6] was “showing experimental allergic asthma” in each case.
Consider `OC[C@H]1O[C@@H]2O[C@H]3[C@H](O)[C@@H](O)[C@@H](O[C@H]4[C@H](O)[C@@H](O)[C@@H](O[C@H]5[C@H](O)[C@@H](O)[C@@H](O[C@H]6[C@H](O)[C@@H](O)[C@@H](O[C@H]7[C@H](O)[C@@H](O)[C@@H](O[C@H]1[C@H](O)[C@H]2O)O[C@@H]7CO)O[C@@H]6CO)O[C@@H]5CO)O[C@@H]4CO)O[C@@H]3CO` [α-cyclodextrin], for which, in series [1] (compound (A), versus phosphoric acid buffer having pH 6), the “solubility-enhancing effect relative to phosphoric acid buffer” value is recorded as 1000 times. Moreover, the “enhancement of solubility of compound (A) (in words)” value in series [1] is “remarkably enhances the solubility of compound (A) without impairing its stability; also recorded: highly advantageous effect; also recorded: prominent enhancement of solubility”.

(Values after patent US4822823A, “Aqueous preparation and method of preparation thereof” (priority 1986, dated 1989).)
